Results published in patent US8987267B2, “2-substituted-8-alkyl-7-OXO-7,8-dihydropyrido[2,3-D]pyrimidine-6-carbonitriles and uses thereof in treating proliferative disorders” (Temple University—of the Commonwealth System of Higher …, priority 2010, dated 2015).

Assays:
U266 = assay: Cytotoxicity assay, viable cell count; format: cell-based; details: Homo sapiens, U-266; U266, Multiple Myeloma; 96 h continuous treatment, trypan blue
Description: (§1) Cells (1×10^5) were plated into 6-well dishes and 24 h later 8-cyclopentyl-2-((4-(4-methylpiperazin-1-yl)phenyl)amino)-7-oxo-7,8-dihydropyrido[2,3-d]pyrimidine-6-carbonitrile (12) was added at five different concentrations over a 2 log dilution (1-100 μM). The total number of viable cells was determined after 96 h of continuous treatment by staining with trypan blue and counting the number of non-staining cells (viable) remaining in each well using a hemacytometer. The percentage of viable cells remaining was calculated as follows: # viable cells (compound treated)/# viable cells (DMSO treated)*100.

SK-BR-3 = assay: Cytotoxicity assay, viable cell count; format: cell-based; details: Homo sapiens; SK-BR-3, ErbB2 + Breast; 96 h continuous treatment, trypan blue
Description: as §1

A549 = assay: Cytotoxicity assay, viable cell count; format: cell-based; details: Homo sapiens; A549, NSCLC; 96 h continuous treatment, trypan blue
Description: as §1

HELA = assay: Cytotoxicity assay, viable cell count; format: cell-based; details: Homo sapiens, Cervical, 96 h continuous treatment, trypan blue
Description: as §1

MDA-MB-468 = assay: Cytotoxicity assay, viable cell count; format: cell-based; details: Homo sapiens, MDA-MB-468, 96 h
Description: as §1

DLD-1 = assay: Cytotoxicity assay, viable cell count; format: cell-based; details: Homo sapiens; DLD-1, COLO-RECTAL; 96 h continuous treatment, trypan blue
Description: as §1

N87 = assay: Cytotoxicity assay, viable cell count; format: cell-based; details: N87, Gastric(ErbB2+); 96 h continuous treatment, trypan blue
Description: as §1

SW480 = assay: Cytotoxicity assay, viable cell count; format: cell-based; details: Homo sapiens; SW480, COLO-RECTAL; 96 h continuous treatment, trypan blue
Description: as §1

SK-OV-3 = assay: Cytotoxicity assay, viable cell count; format: cell-based; details: Homo sapiens; SK-OV-3, Ovarian; 96 h continuous treatment, trypan blue
Description: as §1

JURKAT = assay: Cytotoxicity assay, viable cell count; format: cell-based; details: Homo sapiens, T-Cell Lymphoma, 96 h continuous treatment, trypan blue
Description: as §1

DU145 = assay: Cytotoxicity assay, viable cell count; format: cell-based; details: Homo sapiens, DU-145; DU145, PROSTATE; 96 h continuous treatment, trypan blue
Description: as §1

MIA-PaCa-2 = assay: Cytotoxicity assay, viable cell count; format: cell-based; details: Homo sapiens; MIA-PaCa-2, Pancreatic; 96 h continuous treatment, trypan blue
Description: as §1

FLT3 = FLT3 (Homo sapiens, UniProt P36888); assay: Kinase inhibition panel; format: biochemical; details: 10 μM ATP
EPHA2 = EPHA2 (Homo sapiens, UniProt P29317); assay: Kinase inhibition panel; format: biochemical; details: 10 μM ATP
EphB1 = EphB1 (Homo sapiens, UniProt P54762); assay: Kinase inhibition panel; format: biochemical; details: 10 μM ATP
Chain of EphB1 (P54762 18-984, species assumed): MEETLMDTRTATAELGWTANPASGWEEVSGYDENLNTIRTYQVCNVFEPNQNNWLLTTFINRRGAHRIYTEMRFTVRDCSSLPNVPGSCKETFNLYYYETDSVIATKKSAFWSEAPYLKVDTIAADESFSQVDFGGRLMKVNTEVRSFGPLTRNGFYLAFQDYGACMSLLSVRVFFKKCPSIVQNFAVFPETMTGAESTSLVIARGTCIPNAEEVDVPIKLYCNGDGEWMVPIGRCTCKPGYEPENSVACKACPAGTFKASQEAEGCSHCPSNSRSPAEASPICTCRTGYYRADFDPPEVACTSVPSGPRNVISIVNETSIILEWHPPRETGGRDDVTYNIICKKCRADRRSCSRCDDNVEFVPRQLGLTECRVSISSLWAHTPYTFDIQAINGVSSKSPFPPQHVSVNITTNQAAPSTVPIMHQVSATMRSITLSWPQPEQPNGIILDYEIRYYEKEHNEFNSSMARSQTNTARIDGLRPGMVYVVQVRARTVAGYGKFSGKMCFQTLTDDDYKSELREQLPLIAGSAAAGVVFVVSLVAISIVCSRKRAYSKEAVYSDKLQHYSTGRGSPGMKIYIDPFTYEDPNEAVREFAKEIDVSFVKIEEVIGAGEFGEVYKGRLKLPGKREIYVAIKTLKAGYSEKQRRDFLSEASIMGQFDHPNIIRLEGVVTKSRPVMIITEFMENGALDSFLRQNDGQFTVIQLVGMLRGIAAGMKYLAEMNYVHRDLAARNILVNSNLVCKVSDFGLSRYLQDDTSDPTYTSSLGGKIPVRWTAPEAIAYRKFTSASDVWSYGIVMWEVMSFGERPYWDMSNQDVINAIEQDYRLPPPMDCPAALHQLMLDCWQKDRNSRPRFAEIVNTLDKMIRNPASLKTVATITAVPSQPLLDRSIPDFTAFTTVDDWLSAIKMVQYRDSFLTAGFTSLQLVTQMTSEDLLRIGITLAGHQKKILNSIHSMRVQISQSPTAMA
Description: (§2) The compounds in Table 4 were tested for the ability to inhibit the kinase activity of the listed protein kinases.

FGFR1 = FGFR1 (Homo sapiens, UniProt P11362); assay: Kinase inhibition panel; format: biochemical; details: 10 μM ATP
Chain of FGFR1 (P11362 22-822, species assumed): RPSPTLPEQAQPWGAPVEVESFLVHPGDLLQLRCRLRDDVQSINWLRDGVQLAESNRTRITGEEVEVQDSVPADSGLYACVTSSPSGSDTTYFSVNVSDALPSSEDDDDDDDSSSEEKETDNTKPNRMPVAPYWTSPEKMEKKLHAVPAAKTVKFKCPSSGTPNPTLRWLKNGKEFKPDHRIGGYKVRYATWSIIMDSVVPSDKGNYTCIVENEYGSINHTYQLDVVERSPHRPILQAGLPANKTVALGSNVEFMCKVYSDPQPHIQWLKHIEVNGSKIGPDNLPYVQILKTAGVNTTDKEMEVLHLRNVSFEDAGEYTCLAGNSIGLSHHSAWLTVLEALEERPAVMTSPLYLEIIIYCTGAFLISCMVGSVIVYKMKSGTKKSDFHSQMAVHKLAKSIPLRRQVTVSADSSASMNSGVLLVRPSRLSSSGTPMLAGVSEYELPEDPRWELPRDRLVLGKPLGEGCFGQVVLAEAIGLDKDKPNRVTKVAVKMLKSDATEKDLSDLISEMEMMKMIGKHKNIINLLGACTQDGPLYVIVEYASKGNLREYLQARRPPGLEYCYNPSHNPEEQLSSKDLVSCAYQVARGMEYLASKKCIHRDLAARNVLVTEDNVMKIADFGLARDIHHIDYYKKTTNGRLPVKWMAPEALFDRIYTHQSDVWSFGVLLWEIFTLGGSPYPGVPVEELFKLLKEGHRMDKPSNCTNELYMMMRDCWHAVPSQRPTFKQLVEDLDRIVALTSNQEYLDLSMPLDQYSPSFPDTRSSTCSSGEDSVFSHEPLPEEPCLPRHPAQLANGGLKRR
Description: as §2

RIPK2 = RIPK2 (Homo sapiens, UniProt O43353); assay: Kinase inhibition panel; format: biochemical; details: 10 μM ATP
Description: as §2

LYNB = LYNB (Homo sapiens, UniProt P07948); assay: Kinase inhibition panel; format: biochemical; details: 10 μM ATP
Description: as §2

LOK/STK10 = LOK/STK10 (Homo sapiens, UniProt O94804); assay: Kinase inhibition panel; format: biochemical; details: 10 μM ATP
Description: as §2

FMS = FMS (Homo sapiens, UniProt P07333); assay: Kinase inhibition panel; format: biochemical; details: 10 μM ATP
Description: as §2

SIK2/SNF1LK2 = SIK2/SNF1LK2 (Homo sapiens, UniProt Q9H0K1); assay: Kinase inhibition panel; format: biochemical; details: 10 μM ATP
Description: as §2

EphB4 = EphB4 (Homo sapiens, UniProt P54760); assay: Kinase inhibition panel; format: biochemical; details: 10 μM ATP
Description: as §2

c-Src = c-Src (Homo sapiens, UniProt P12931); assay: Kinase inhibition panel; format: biochemical; details: 10 μM ATP
Chain of c-Src (P12931 whole entry, species assumed): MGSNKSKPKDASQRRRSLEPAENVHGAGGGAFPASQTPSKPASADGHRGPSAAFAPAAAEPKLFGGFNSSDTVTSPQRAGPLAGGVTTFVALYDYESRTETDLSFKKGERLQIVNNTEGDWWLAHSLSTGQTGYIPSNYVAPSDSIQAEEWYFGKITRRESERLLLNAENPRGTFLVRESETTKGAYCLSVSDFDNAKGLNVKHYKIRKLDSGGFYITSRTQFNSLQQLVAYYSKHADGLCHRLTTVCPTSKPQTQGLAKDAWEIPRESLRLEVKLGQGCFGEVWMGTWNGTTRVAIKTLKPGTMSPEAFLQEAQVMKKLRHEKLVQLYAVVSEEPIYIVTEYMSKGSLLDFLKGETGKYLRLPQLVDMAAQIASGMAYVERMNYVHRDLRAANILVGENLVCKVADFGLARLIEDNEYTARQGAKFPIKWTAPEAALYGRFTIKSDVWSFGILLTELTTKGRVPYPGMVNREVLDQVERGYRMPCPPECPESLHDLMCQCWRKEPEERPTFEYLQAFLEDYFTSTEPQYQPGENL
Description: as §2

FLTINEGFRI = FLTINEGFRI (Homo sapiens, UniProt P17948); assay: Kinase inhibition panel; format: biochemical; details: 10 μM ATP
Description: as §2

CDK2/cyclinA = CDK2/cyclinA (Homo sapiens, UniProt P24941); assay: Kinase inhibition panel; format: biochemical; details: 10 μM ATP
Description: as §2

CDK2/cyclinE = CDK2/cyclinE (Homo sapiens, UniProt P24941); assay: Kinase inhibition panel; format: biochemical; details: 10 μM ATP
Description: as §2

CDK9/cyclin K = CDK9/cyclin K (Homo sapiens, UniProt P50750); assay: Kinase inhibition panel; format: biochemical; details: 10 μM ATP
Description: as §2

PAK3 = PAK3 (Homo sapiens, UniProt O75914); assay: Kinase inhibition panel; format: biochemical; details: 10 μM ATP
Chain of PAK3 (O75914 whole entry, species assumed): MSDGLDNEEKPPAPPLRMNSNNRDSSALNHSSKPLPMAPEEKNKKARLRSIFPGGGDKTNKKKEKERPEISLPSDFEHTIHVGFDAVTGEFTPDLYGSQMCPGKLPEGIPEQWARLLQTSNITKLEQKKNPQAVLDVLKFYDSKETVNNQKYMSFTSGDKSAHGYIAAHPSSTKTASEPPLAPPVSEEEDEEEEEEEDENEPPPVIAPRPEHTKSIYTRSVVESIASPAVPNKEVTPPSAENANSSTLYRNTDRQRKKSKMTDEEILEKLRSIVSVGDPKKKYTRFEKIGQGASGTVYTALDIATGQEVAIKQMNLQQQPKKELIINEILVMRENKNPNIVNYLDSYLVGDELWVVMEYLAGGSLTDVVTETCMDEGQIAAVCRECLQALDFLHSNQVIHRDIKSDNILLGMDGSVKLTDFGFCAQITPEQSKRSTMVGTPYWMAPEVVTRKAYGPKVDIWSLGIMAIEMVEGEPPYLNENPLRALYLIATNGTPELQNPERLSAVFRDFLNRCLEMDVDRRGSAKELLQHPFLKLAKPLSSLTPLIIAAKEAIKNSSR
Description: as §2

ABL2/ARG = ABL2/ARG (Homo sapiens, UniProt P42684); assay: Kinase inhibition panel; format: biochemical; details: 10 μM ATP
Description: as §2

CDK6/cyclinD1 = CDK6/cyclinD1 (Homo sapiens, UniProt Q00534); assay: Kinase inhibition panel; format: biochemical; details: 10 μM ATP
Description: as §2

TAOK2ITA01 = TAOK2ITA01 (Homo sapiens, UniProt Q9UL54); assay: Kinase inhibition panel; format: biochemical; details: 10 μM ATP
Description: as §2

CDK3/cyclinE = CDK3/cyclinE (Homo sapiens, UniProt Q00526); assay: Kinase inhibition panel; format: biochemical; details: 10 μM ATP
Description: as §2

FGFR3 = FGFR3 (Homo sapiens, UniProt P22607); assay: Kinase inhibition panel; format: biochemical; details: 10 μM ATP
Description: as §2

SNARK/NUAK2 = SNARK/NUAK2 (Homo sapiens, UniProt Q9H093); assay: Kinase inhibition panel; format: biochemical; details: 10 μM ATP
Chain of SNARK/NUAK2 (Q9H093 whole entry): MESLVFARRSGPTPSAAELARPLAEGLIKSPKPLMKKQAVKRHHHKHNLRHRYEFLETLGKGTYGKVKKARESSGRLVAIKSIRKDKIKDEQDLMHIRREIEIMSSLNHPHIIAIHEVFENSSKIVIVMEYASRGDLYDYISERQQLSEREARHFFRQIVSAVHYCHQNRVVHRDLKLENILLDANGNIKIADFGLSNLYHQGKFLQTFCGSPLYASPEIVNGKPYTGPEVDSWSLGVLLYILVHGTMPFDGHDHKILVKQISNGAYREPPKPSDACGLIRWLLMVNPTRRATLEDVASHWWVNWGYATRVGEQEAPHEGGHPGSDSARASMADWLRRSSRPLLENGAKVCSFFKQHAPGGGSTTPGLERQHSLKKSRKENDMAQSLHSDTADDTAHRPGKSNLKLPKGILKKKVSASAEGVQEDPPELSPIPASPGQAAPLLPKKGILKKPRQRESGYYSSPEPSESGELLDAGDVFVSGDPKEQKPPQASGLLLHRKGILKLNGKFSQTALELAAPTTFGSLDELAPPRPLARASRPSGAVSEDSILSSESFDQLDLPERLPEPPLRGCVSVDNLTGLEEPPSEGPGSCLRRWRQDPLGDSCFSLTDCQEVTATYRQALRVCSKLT
Description: as §2

EPHA1 = EPHA1 (Homo sapiens, UniProt P21709); assay: Kinase inhibition panel; format: biochemical; details: 10 μM ATP
Description: as §2

CDK4/Cyclin D1 = CDK4/Cyclin D1 (Homo sapiens, UniProt P11802); assay: Kinase inhibition panel; format: biochemical; details: 10 μM ATP
Chain of CDK4/Cyclin D1 (P11802 whole entry, species assumed): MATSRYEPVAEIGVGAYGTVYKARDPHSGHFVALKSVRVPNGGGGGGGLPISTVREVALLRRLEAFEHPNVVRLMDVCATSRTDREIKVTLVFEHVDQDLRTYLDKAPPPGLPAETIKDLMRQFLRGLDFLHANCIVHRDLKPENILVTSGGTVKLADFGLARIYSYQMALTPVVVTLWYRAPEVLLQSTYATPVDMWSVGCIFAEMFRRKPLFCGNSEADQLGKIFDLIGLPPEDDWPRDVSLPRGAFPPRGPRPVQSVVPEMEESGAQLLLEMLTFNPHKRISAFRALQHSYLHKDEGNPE
Chain of CDK4/Cyclin D1 (P24385 whole entry partner, species assumed): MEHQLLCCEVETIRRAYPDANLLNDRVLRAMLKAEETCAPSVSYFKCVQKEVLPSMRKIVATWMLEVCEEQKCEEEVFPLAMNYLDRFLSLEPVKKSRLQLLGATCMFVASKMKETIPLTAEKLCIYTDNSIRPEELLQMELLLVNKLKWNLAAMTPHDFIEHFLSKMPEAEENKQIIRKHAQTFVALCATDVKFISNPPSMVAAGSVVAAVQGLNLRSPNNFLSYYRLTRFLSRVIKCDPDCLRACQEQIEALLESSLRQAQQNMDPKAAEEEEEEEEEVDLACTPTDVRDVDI
Description: as §2

TBK1 = TBK1 (Homo sapiens, UniProt Q9UHD2); assay: Kinase inhibition panel; format: biochemical; details: 10 μM ATP
Chain of TBK1 (Q9UHD2 whole entry, species assumed): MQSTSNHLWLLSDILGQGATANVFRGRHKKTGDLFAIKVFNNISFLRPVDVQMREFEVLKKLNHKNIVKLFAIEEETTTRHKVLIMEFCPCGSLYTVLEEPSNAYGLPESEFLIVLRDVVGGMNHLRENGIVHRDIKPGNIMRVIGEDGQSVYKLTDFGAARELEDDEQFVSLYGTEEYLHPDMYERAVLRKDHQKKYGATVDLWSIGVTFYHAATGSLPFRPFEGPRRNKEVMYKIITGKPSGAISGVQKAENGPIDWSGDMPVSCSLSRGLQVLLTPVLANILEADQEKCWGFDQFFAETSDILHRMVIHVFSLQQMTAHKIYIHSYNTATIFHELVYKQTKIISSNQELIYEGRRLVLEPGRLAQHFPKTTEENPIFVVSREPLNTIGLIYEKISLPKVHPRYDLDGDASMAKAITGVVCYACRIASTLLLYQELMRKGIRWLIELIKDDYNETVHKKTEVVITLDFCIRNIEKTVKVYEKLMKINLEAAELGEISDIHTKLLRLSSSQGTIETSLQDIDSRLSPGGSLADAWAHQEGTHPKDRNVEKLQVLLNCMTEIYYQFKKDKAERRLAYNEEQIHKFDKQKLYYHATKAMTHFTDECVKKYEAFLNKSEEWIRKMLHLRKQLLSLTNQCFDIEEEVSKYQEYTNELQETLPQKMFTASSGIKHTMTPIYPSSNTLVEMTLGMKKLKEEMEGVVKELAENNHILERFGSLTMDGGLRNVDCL

- IC50 (FLT3): 0.0136 µM
- IC50 (EPHA2): 0.114 µM
- IC50 (EphB1): 0.0267 µM
- IC50 (FGFR1): 0.0682 µM
- IC50 (RIPK2): 0.0408 µM
- IC50 (LYNB): 6.65 µM
- IC50 (LOK/STK10): 0.181 µM
- IC50 (FMS): 0.00146 µM
- IC50 (SIK2/SNF1LK2): 0.0968 µM
- IC50 (EphB4): 0.12 µM
- IC50 (c-Src): 0.093 µM
- IC50 (FLTINEGFRI): 0.0941 µM
- IC50 (CDK2/cyclinA): 0.0973 µM
- IC50 (CDK2/cyclinE): 0.77 µM
- IC50 (CDK9/cyclin K): 0.0271 µM
- IC50 (PAK3): 1.93 µM
- IC50 (ABL2/ARG): 0.0916 µM
- IC50 (CDK6/cyclinD1): 0.0184 µM
- IC50 (TAOK2ITA01): 0.0696 µM
- IC50 (CDK3/cyclinE): 3.22 µM
- IC50 (FGFR3): 0.124 µM
- IC50 (SNARK/NUAK2): 0.0207 µM
- IC50 (EPHA1): 0.0371 µM
- IC50 (CDK4/Cyclin D1): 0.004 µM
- IC50 (TBK1): 0.0718 µM
Structure (SMILES): CN1CCN(c2ccc(Nc3ncc4cc(C#N)c(=O)n(C5CCCC5)c4n3)cc2)CC1 [Compound 12, 8-cyclopentyl-2-((4-(4-methylpiperazin-1-yl)phenyl)amino)-7-oxo-7,8-dihydropyrido[2,3-d]pyrimidine-6-carbonitrile]
- GI50 (U266): 0.2 µM
- GI50 (SK-BR-3): 0.6 µM
- GI50 (A549): 0.2 µM
- GI50 (HELA): 0.75 µM
- GI50 (MDA-MB-468): 1.5 µM
- GI50 (DLD-1): 0.1 µM
- GI50 (N87): 0.9 µM
- GI50 (SW480): 0.1 µM
- GI50 (SK-OV-3): 0.75 µM
- GI50 (JURKAT): 0.15 µM
- GI50 (DU145): 0.75 µM
- GI50 (MIA-PaCa-2): 0.25 µM
